One assay is filed under the species Cavia porcellus. Description: Tested for the inhibitory activity against neutrophil infiltration in response to LTB4 in guinea pig. It counts as functional.
The species entered for assay [1] is Homo sapiens. The assay is described as follows: Tested for inhibitory activity against LTB4 induced chemotaxis of human neutrophils. In kind it is functional.
The species named for assay [2] is Homo sapiens. Description: Tested for inhibitory activity against LTB4 induced up-regulation of CD11b on human neutrophils. It counts as functional.
In assay [3] the target is Leukotriene B4 receptor 1 (Mus musculus, UniProt O88855). The assay is described as follows: Tested for antagonistic activity in mouse spleen membrane against LTB4 receptor. In kind it is functional, cell membranes.
A further assay relates to Mus musculus. Description: Oral administration of compound in 0.5% methyl cellulose inhibits the LTB4-induced response. It counts as functional.
Assay [4] has as its target T1, Prostaglandin G/H synthase 2 (Ovis aries) (UniProt P79208).
T1 sequence (whole entry): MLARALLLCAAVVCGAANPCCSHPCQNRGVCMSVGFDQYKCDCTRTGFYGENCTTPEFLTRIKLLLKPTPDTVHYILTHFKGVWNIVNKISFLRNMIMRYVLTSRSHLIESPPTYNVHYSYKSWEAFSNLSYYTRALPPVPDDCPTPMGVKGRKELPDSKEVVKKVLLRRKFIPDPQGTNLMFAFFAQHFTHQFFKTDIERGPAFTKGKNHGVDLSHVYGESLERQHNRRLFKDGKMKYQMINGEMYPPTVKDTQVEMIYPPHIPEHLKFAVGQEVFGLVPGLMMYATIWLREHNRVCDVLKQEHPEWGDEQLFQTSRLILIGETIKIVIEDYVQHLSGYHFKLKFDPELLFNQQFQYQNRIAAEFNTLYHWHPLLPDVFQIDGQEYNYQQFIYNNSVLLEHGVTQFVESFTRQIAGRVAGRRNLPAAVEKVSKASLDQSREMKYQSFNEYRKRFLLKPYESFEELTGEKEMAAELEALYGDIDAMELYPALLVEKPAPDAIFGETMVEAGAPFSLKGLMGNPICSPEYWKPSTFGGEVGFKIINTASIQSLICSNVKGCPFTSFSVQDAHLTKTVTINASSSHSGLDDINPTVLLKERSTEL
Description: Tested for inhibition of the Prostaglandin G/H synthase at 10 uM conc.; No inhibition.

The text below walks through data of ChEMBL document CHEMBL1127793 (J Med Chem, 1994).

Each structure is given as a SMILES string. The source made the active and inactive calls. The calls are words filed in the database; no cut-off is given here.

Sequence of Leukotriene B4 receptor 1 (O88855 whole entry): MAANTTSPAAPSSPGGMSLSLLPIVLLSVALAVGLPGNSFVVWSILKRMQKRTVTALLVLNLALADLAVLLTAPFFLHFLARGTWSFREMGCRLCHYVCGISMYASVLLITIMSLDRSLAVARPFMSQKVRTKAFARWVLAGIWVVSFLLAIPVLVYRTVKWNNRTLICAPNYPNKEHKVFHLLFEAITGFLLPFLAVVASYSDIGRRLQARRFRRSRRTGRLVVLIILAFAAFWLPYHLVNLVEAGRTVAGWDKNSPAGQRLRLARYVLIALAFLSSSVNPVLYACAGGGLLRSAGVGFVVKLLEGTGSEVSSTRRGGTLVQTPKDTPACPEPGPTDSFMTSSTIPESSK

One may read the ED50 as the dose at which the effect has come halfway, by size or by number of responders. Read a low ED50 as greater potency. For orientation: IC50 means the concentration at which inhibition is half-maximal. A low value points to higher potency. On to `O=C(O)C1(c2ccc3c(c2)OC[C@H](Cc2ccc(-c4ccccc4)cc2)[C@H]3O)CCCC1`, for which the ED50 in the assay listed under Cavia porcellus was 0.26 mg/kg; with Mus musculus, 4.2 mg/kg. The values for the IC50 (in the assay listed under Homo sapiens [1]; in the assay listed under Homo sapiens [2]; in assay [3]) were 5.2 nM, 430 nM and 30.3 nM, respectively. Also, the inhibition result in assay [4] is “inactive”.
